# Paper PMC11769294, “(E)-1-(3-(3-Hydroxy-4-Methoxyphenyl)-1-(3,4,5-Trimethoxyphenyl)allyl)-1H-1,2,4-Triazole and Related Compounds: Their Synthesis and Biological Evaluation as Novel Antimitotic Agents Targeting Breast Cancer” (Pharmaceuticals, 2025)
# Values joined by “and” are separate entries in the source; they are usually repeats but may differ in a detail not shown here. Identical values can stand only once.
# Assays:
# Type in all cases: cell-based, human
# breast cancer panel = test: NCI60 screen (SRB), panel mean; settings: BC panel; one dose 10 µM; 48 h
# leukemia panel = test: NCI60 screen (SRB), panel mean; settings: one dose 10 µM, 48 h
# CCRF-CEM (Leukemia) = test: NCI60 screen (SRB); settings: 48 h
# K-562 (Leukemia) = test: NCI60 screen (SRB); settings: 48 h
# RPMI-8226 (Leukemia) = test: NCI60 screen (SRB); settings: 48 h
# [1] = system: HOP-62 (Non-Small Cell Lung Cancer); test: NCI60 screen (SRB); settings: 48 h
# [2] = system: HOP-92 (Non-Small Cell Lung Cancer); test: NCI60 screen (SRB); settings: 48 h
# [3] = system: NCI-H23 (Non-Small Cell Lung Cancer); test: NCI60 screen (SRB); settings: 48 h
# [4] = system: NCI-H322M (Non-Small Cell Lung Cancer); test: NCI60 screen (SRB); settings: 48 h
# [5] = system: NCI-H522 (Non-Small Cell Lung Cancer); test: NCI60 screen (SRB); settings: for GI50: five-dose
# HCT-15 (Colon Cancer) = test: NCI60 screen (SRB); settings: 48 h
# HT29 (Colon Cancer) = test: NCI60 screen (SRB); settings: 48 h
# KM12 (Colon Cancer) = test: NCI60 screen (SRB); settings: 48 h
# SW-620 (Colon Cancer) = test: NCI60 screen (SRB); settings: for GI50: five-dose
# SF-268 (CNS Cancer) = test: NCI60 screen (SRB); settings: 48 h
# SF-295 (CNS Cancer) = test: NCI60 screen (SRB); settings: 48 h
# SF-539 (CNS Cancer) = test: NCI60 screen (SRB); settings: 48 h
# SNB-75 (CNS Cancer) = test: NCI60 screen (SRB); settings: 48 h
# U251 (CNS Cancer) = test: NCI60 screen (SRB); settings: 48 h
# LOX IMVI (Melanoma) = test: NCI60 screen (SRB); settings: 48 h
# MALME-3M (Melanoma) = test: NCI60 screen (SRB); settings: 48 h
# M14 (Melanoma) = test: NCI60 screen (SRB); settings: 48 h
# MDA-MB-435 (Melanoma) = test: NCI60 screen (SRB); settings: 48 h
# SK-MEL-28 (Melanoma) = test: NCI60 screen (SRB); settings: 48 h
# SK-MEL-5 (Melanoma) = test: NCI60 screen (SRB); settings: 48 h
# UACC-62 (Melanoma) = test: NCI60 screen (SRB); settings: 48 h
# IGROV1 (Ovarian Cancer) = test: NCI60 screen (SRB); settings: 48 h
# OVCAR-3 (Ovarian Cancer) = test: NCI60 screen (SRB); settings: 48 h
# OVCAR-4 (Ovarian Cancer) = test: NCI60 screen (SRB); settings: 48 h
# OVCAR-5 (Ovarian Cancer) = test: NCI60 screen (SRB); settings: 48 h
# OVCAR-8 (Ovarian Cancer) = test: NCI60 screen (SRB); settings: 48 h
# 786-0 (Renal Cancer) = test: NCI60 screen (SRB); settings: 48 h
# A498 (Renal Cancer) = test: NCI60 screen (SRB); settings: 48 h
# ACHN (Renal Cancer) = test: NCI60 screen (SRB); settings: 48 h
# CAKI-1 (Renal Cancer) = test: NCI60 screen (SRB); settings: 48 h
# RXF 393 (Renal Cancer) = test: NCI60 screen (SRB); settings: 48 h
# TK-10 (Renal Cancer) = test: NCI60 screen (SRB); settings: 48 h
# UO-31 (Renal Cancer) = test: NCI60 screen (SRB); settings: 48 h
# PC-3 (Prostate Cancer) = test: NCI60 screen (SRB); settings: 48 h
# MCF7 (Breast Cancer) = test: NCI60 screen (SRB); settings: 48 h
# [6] = system: MDA-MB-231/ATCC (Breast Cancer); test: NCI60 screen (SRB); settings: Homo sapiens, five-dose, 48 h
# BT-549 (Breast Cancer) = test: NCI60 screen (SRB); settings: for GI50: five-dose
# [7] = Homo sapiens, five-dose, read-out: IC50 (cell marked * in GI50 column) (converted)
# [8] = Homo sapiens, five-dose, read-out: IC50 (cell marked * in GI50 column)
structure (smiles),measurement,setting,value
"COc1ccc(/C=C/C(c2cc(OC)c(OC)c(OC)c2)n2cncn2)cc1O (stereo not drawn) [Compound 22b, (E)-5-(3-(1H-1,2,4-Triazol-1-yl)-3-(3,4,5-trimethoxyphenyl)prop-1-en-1-yl)-2-methoxyphenol]",mean growth percentage,breast cancer panel,29.1%
same,mean growth percentage,leukemia panel,4.2%
same,GI50,"CCRF-CEM (Leukemia); Homo sapiens, five-dose",32 nM
same,growth percent,CCRF-CEM (Leukemia); one dose 10 µM,6.31%
same,GI50,"K-562 (Leukemia); Homo sapiens, K562, five-dose",32 nM
same,growth percent,K-562 (Leukemia); one dose 10 µM,8.05%
same,GI50,"RPMI-8226 (Leukemia); Homo sapiens, five-dose",37 nM
same,growth percent,RPMI-8226 (Leukemia); one dose 10 µM,19.89%
same,IC50,[1]; [7],30200 nM
same,growth percent,[1]; one dose 10 µM,22.52%
same,GI50,"[2]; Homo sapiens, five-dose",67000 nM
same,growth percent,[2]; one dose 10 µM,47.98%
same,GI50,"[3]; Homo sapiens, five-dose",3470 nM
same,growth percent,[3]; one dose 10 µM,41.50%
same,IC50,[4]; [8],> 100000 nM
same,growth percent,[4]; one dose 10 µM,54.65%
same,GI50,"[5]; Homo sapiens, NCI-H522, 48 h",22 nM
same,GI50,[5]; 48 h,22.3 nM
same,growth percent,"[5]; one dose 10 µM, 48 h",13.04%
same,GI50,"HCT-15 (Colon Cancer); Homo sapiens, five-dose",50.8 nM
same,growth percent,HCT-15 (Colon Cancer); one dose 10 µM,16.53%
same,GI50,"HT29 (Colon Cancer); Homo sapiens, HT-29, five-dose",3680 nM
same,growth percent,HT29 (Colon Cancer); one dose 10 µM,41.01%
same,GI50,"KM12 (Colon Cancer); Homo sapiens, five-dose",40.5 nM
same,growth percent,KM12 (Colon Cancer); one dose 10 µM,26.67%
same,GI50,"SW-620 (Colon Cancer); Homo sapiens, SW-620, 48 h",39 nM
same,GI50,SW-620 (Colon Cancer); 48 h,39.4 nM
same,growth percent,"SW-620 (Colon Cancer); one dose 10 µM, 48 h",27.62%
same,GI50,"SF-268 (CNS Cancer); Homo sapiens, five-dose",58.9 nM
same,growth percent,SF-268 (CNS Cancer); one dose 10 µM,54.09%
same,IC50,SF-295 (CNS Cancer); [7],3720 nM
same,growth percent,SF-295 (CNS Cancer); one dose 10 µM,1.43%
same,GI50,"SF-539 (CNS Cancer); Homo sapiens, five-dose",26.7 nM
same,growth percent,SF-539 (CNS Cancer); one dose 10 µM,−4.58%
same,IC50,SNB-75 (CNS Cancer); [8],> 100000 nM
same,growth percent,SNB-75 (CNS Cancer); one dose 10 µM,40.99%
same,GI50,"U251 (CNS Cancer); Homo sapiens, U-251, five-dose",50.6 nM
same,growth percent,U251 (CNS Cancer); one dose 10 µM,20.72%
same,GI50,"LOX IMVI (Melanoma); Homo sapiens, five-dose",51.1 nM
same,growth percent,LOX IMVI (Melanoma); one dose 10 µM,50.87%
same,IC50,MALME-3M (Melanoma); [8],> 100000 nM
same,growth percent,MALME-3M (Melanoma); one dose 10 µM,54.35%
same,GI50,"M14 (Melanoma); Homo sapiens, five-dose",28.7 nM
same,growth percent,M14 (Melanoma); one dose 10 µM,−12.29%
same,GI50,"MDA-MB-435 (Melanoma); Homo sapiens, five-dose",18.3 nM
same,growth percent,MDA-MB-435 (Melanoma); one dose 10 µM,−32.99%
same,GI50,"SK-MEL-28 (Melanoma); Homo sapiens, five-dose",3620 nM
same,growth percent,SK-MEL-28 (Melanoma); one dose 10 µM,59.08%
same,GI50,"SK-MEL-5 (Melanoma); Homo sapiens, five-dose",45.8 nM
same,growth percent,SK-MEL-5 (Melanoma); one dose 10 µM,23.87%
same,GI50,"UACC-62 (Melanoma); Homo sapiens, five-dose",47.6 nM
same,growth percent,UACC-62 (Melanoma); one dose 10 µM,37.50%
same,GI50,"IGROV1 (Ovarian Cancer); Homo sapiens, IGROV-1, five-dose",5830 nM
same,growth percent,IGROV1 (Ovarian Cancer); one dose 10 µM,50.48%
same,GI50,"OVCAR-3 (Ovarian Cancer); Homo sapiens, five-dose",26 nM
same,growth percent,OVCAR-3 (Ovarian Cancer); one dose 10 µM,15.65%
same,GI50,"OVCAR-4 (Ovarian Cancer); Homo sapiens, five-dose",7050 nM
same,growth percent,OVCAR-4 (Ovarian Cancer); one dose 10 µM,83.51%
same,GI50,"OVCAR-5 (Ovarian Cancer); Homo sapiens, five-dose",4480 nM
same,growth percent,OVCAR-5 (Ovarian Cancer); one dose 10 µM,86.55%
same,IC50,OVCAR-8 (Ovarian Cancer); [7],3630 nM
same,growth percent,OVCAR-8 (Ovarian Cancer); one dose 10 µM,15.99%
same,IC50,786-0 (Renal Cancer); [7],8910 nM
same,growth percent,786-0 (Renal Cancer); one dose 10 µM,23.33%
same,GI50,"A498 (Renal Cancer); Homo sapiens, five-dose",3130 nM
same,growth percent,A498 (Renal Cancer); one dose 10 µM,19.81%
same,GI50,"ACHN (Renal Cancer); Homo sapiens, five-dose",57.9 nM
same,growth percent,ACHN (Renal Cancer); one dose 10 µM,63.11%
same,GI50,"CAKI-1 (Renal Cancer); Homo sapiens, five-dose",2830 nM
same,growth percent,CAKI-1 (Renal Cancer); one dose 10 µM,34.50%
same,IC50,RXF 393 (Renal Cancer); [8],> 100000 nM
same,growth percent,RXF 393 (Renal Cancer); one dose 10 µM,−16.94%
same,GI50,"TK-10 (Renal Cancer); Homo sapiens, five-dose",21200 nM
same,growth percent,TK-10 (Renal Cancer); one dose 10 µM,41.24%
same,IC50,UO-31 (Renal Cancer); [8],> 100000 nM
same,growth percent,UO-31 (Renal Cancer); one dose 10 µM,54.20%
same,GI50,"PC-3 (Prostate Cancer); Homo sapiens, five-dose",36 nM
same,growth percent,PC-3 (Prostate Cancer); one dose 10 µM,23.47%
same,GI50,"MCF7 (Breast Cancer); Homo sapiens, five-dose",33 nM
same,growth percent,MCF7 (Breast Cancer); one dose 10 µM,21.2% and 21.22%
same,GI50,[6],3020 nM
same,GI50,"BT-549 (Breast Cancer); Homo sapiens, BT-549, 48 h",71 nM
same,GI50,BT-549 (Breast Cancer); 48 h,71.2 nM
same,growth percent,"BT-549 (Breast Cancer); one dose 10 µM, 48 h",36.59%
